Experimental data reported in US12187686B2, “BRD4-JAK2 inhibitors” (H. LEE MOFFITT CANCER CENTER AND RESEARCH INSTITUTE, INC., priority 2018, dated 2025).
Like-named read-outs stand apart in the source and are kept apart here.

Assays:
[1] = system: MM1.S cells; assay: Antiproliferative activity in MM1.S cells (sensitive for BRD4 inhibition); type: cell-based; conditions: Homo sapiens; for EC50: MM1.S cells (sensitive for BRD4 inhibition); for GI50 / IC50: MM1.S; for GI50: Table 3, read-out: GI50 (MM1S)
Protocol: Cellular activity of promising compounds is assessed using MM.1S and MV4-11 AML cells using c-Myc levels as biomarker (6-12 hr treatment) and antiproliferative activity (48-72 hr treatment) as described (Ciceri et al., Dual kinase-bromodomain inhibitors for rationally designed polypharmacology. Nat Chem Biol 2014).

[2] = system: UKE1 cells; assay: Growth inhibition of UKE1 cells; type: cell-based
[3] = target: T1, BRD4 (Homo sapiens, UniProt O60885); assay: Differential Scanning Fluorimetry (DSF), increased stability of BRD4 upon ligand binding; conditions: for ΔTm at 4 µM: 100 μM protein, 4 μM compound and 2% DMSO; for BRD4 DSF (ΔTm): Table 3
Protocol: DSF=Differential Scanning Fluorimetry; provides a measure of the increased stability of BRD4 upon ligand binding The DSF experiment was run at 100 μM protein, 4 μM compound and 2% DMSO.

[4] = system: c-Myc; conditions: MM.1S cells; background, literature; cited from earlier work
[5] = target: JAK2 (Homo sapiens, UniProt O60674); assay: JAK2 inhibition (IC50); type: biochemical
JAK2, sequence (O60674 whole entry): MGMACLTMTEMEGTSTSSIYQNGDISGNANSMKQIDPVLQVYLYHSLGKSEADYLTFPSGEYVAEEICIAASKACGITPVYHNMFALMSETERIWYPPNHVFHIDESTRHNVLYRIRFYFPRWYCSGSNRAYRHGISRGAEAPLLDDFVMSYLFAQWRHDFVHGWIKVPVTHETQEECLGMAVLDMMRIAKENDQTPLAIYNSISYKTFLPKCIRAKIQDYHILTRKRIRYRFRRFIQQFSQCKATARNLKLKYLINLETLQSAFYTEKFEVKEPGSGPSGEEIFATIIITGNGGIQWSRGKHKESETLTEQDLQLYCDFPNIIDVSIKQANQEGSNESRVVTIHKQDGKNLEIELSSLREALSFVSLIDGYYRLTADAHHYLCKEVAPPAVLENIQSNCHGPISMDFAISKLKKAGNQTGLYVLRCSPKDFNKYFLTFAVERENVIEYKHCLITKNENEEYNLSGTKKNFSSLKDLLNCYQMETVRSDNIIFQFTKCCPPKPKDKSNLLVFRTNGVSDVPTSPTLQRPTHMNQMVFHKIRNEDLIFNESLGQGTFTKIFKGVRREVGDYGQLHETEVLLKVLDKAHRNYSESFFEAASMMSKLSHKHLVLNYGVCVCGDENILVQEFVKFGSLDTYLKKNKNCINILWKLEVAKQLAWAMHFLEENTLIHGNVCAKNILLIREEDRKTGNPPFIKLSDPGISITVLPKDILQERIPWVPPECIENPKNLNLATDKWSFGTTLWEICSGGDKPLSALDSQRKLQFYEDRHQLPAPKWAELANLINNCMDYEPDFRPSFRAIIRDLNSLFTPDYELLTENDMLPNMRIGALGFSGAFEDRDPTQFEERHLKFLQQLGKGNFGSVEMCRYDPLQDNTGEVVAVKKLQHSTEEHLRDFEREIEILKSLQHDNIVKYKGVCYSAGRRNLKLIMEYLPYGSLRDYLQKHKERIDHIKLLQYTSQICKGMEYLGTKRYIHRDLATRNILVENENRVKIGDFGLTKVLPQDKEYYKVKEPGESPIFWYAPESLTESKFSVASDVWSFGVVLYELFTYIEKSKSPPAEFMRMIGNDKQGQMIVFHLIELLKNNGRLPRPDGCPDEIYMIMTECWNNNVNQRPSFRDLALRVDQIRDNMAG

[6] = target: T1, BRD4; assay: BRD4 inhibition (IC50); type: binding; set-up: BRD4-1
[7] = system: MV4-11 AML cells; conditions: background, literature; read-out: IC50, proliferation of MV4-11 AML cells; cited from earlier work
[8] = Mouse microsome; type: in vitro ADME; conditions: Table 1
[9] = Table 2, read-out: GI50 (UKE1 cells)
[10] = Table 1, estimated, read-out: Estimated BRD4-1 IC50 (BRD4)
[11] = Table 1, read-out: GI50 (UKE1 cells)

Work on `Cc1cnc(Nc2ccc(N3CCN(C)CC3)c(F)c2)cc1Nc1ccc(Cl)c(NS(=O)(=O)C(C)(C)C)c1` yielded an EC50 ([1]; Table 2) of 3120 nM, a GI50 [2, 9] of 4500 nM and a ΔTm at 4 µM ([3]; Table 2) of 6.9 °C.

For `Cc1cnc(Nc2ccc(C3CCN(C)CC3)cc2)cc1Nc1cccc(CS(=O)(=O)C(C)(C)C)c1` [SY3-032, N^4-(3-((tert-Butylsulfonyl)methyl)phenyl)-5-methyl-N^2-(4-(1-methylpiperidin-4-yl)phenyl)pyridine-2,4-diamine], the “BRD4 DSF (ΔTm)” value [3] was 2.5 °C.

For `Cc1cnc(Nc2ccc(C3CCN(C)CC3)c(F)c2)cc1Nc1cccc(CS(=O)(=O)C(C)(C)C)c1` [SY3-036, N^4-(3-((tert-Butylsulfonyl)methyl)phenyl)-N^2-(3-fluoro-4-(1-methylpiperidin-4-yl)phenyl)-5-methylpyridine-2,4-diamine], the “BRD4 DSF (ΔTm)” value [3] was 2.9 °C.

In the case of `CC[C@@H]1C(=O)N(C)c2cnc(Nc3ccc(C(=O)NC4CCN(C)CC4)cc3OC)nc2N1C1CCCC1` [BI2536], the “downregulation of c-Myc” value [4] is given as “strong downregulation”.

For `Cc1cnc(Nc2ccc(N3CCN(C)CC3)c(F)c2)nc1Nc1cccc(CS(=O)(=O)C(C)(C)C)c1` [SR3-159, N^4-(3-((tert-Butylsulfonyl)methyl)phenyl)-N^2-(3-fluoro-4-(4-methylpiperazin-1-yl)phenyl)-5-methylpyrimidine-2,4-diamine], the GI50 [1] was 710 nM, the EC50 ([1]; Table 1) was 710 nM and the IC50 ([5]; Table 1, read-out: IC50 (JAK2)) was 9 nM. For the same compound, the IC50 ([5]; Table 3, read-out: JAK2 (IC50)) was 8 nM, the IC50 [6, 10] was 5610 nM and the IC50 ([6]; Table 3, read-out: BRD4 (IC50)) was 5600 nM. The GI50 [2, 11] was 440 nM, the GI50 ([2]; Table 3, read-out: GI50 (UKE1)) was 440 nM and the ΔTm at 4 µM ([3]; Table 1) was 8.4 °C. The “BRD4 DSF (ΔTm)” value [3] was 8.4 °C.

In the case of `Cc1cnc(Nc2ccc(N3CCN(C)CC3)cc2)nc1Nc1cccc(S(=O)(=O)NC(C)(C)C)c1` [TG101209], the “downregulation of c-Myc” value [4] is given as “strong downregulation”.

`Cc1cnc(Nc2cc(F)c(N3CCN(C)CC3)c(F)c2)cc1Nc1ccc(Cl)c(NS(=O)(=O)C(C)(C)C)c1` gave an EC50 ([1]; Table 2) of 2830 nM, a GI50 [2, 9] of 5700 nM and a ΔTm at 4 µM ([3]; Table 2) of 6.6 °C.

For `Cc1cnc(Nc2ccc(OCCN3CCCC3)cc2)nc1Nc1cccc(S(=O)(=O)NC(C)(C)C)c1` [TG101348], the IC50 [7] is listed as 79 nM and the “downregulation of c-Myc” value [4] is listed as “strong downregulation”.

For `Cc1cnc(Nc2cc(F)c(C3CCN(C)CC3)c(F)c2)nc1Nc1ccc2c(c1)C(S(=O)(=O)C(C)(C)C)CC2` (stereo not shown) [SR5-157, N^4-(3-(tert-Butylsulfonyl)-2,3-dihydro-1H-inden-5-yl)-N^2-(3,5-difluoro-4-(1-methylpiperidin-4-yl)phenyl)-5-methylpyrimidine-2,4-diamine], the GI50 [1] was 700 nM and the GI50 ([2]; Table 3, read-out: GI50 (UKE1)) was 1500 nM.

`Cc1cnc(Nc2ccc(C(=O)NC3CCN(C)CC3)c(F)c2)nc1Nc1cccc(CS(=O)(=O)C(C)(C)C)c1` [SR3-162, 4-((4-((3-((tert-Butylsulfonyl)methyl)phenyl)amino)-5-methylpyrimidin-2-yl)amino)-2-fluoro-N-(1-methylpiperidin-4-yl)benzamide] showed an IC50 ([1]; Table 1) of 130 nM, a GI50 [1] of 130 nM and an IC50 ([5]; Table 3, read-out: JAK2 (IC50)) of 2.2 nM. For the same compound, the ΔTm at 4 µM ([3]; Table 1) was 6.9 °C and the “BRD4 DSF (ΔTm)” value [3] was 6.9 °C.

With `Cc1cnc(Nc2cc(F)c(C3CCN(C)CC3)cn2)nc1Nc1ccc2c(c1)C(S(=O)(=O)C(C)(C)C)CC2` (stereo not shown) [SR5-158, N^4-(3-(tert-Butylsulfonyl)-2,3-dihydro-1H-inden-5-yl)-N^2-(4-fluoro-5-(1-methylpiperidin-4-yl)pyridin-2-yl)-5-methylpyrimidine-2,4-diamine] the GI50 [1] was 2300 nM, the GI50 ([2]; Table 3, read-out: GI50 (UKE1)) was 3640 nM and the “BRD4 DSF (ΔTm)” value [3] was 7.0 °C.

For `Cc1cnc(Nc2ccc(C3CCN(C)CC3)c(F)c2)nc1Nc1cccc(CS(=O)(=O)C(C)(C)C)c1` [SR3-167, N^4-(3-((tert-Butylsulfonyl)methyl)phenyl)-N^2-(3-fluoro-4-(1-methylpiperidin-4-yl)phenyl)-5-methylpyrimidine-2,4-diamine], the IC50 ([1]; Table 1) was 140 nM, the GI50 [1] was 140 nM and the IC50 ([5]; Table 1, unit given as nm, read-out: IC50 (JAK2)) was 0.87 nM. It also gave an IC50 ([5]; Table 3, read-out: JAK2 (IC50)) of 1 nM, a Mouse microsome [8] of 28% and an IC50 [6, 10] of 704 nM. For the same compound, the IC50 ([6]; Table 3, read-out: BRD4 (IC50)) was 700 nM, the GI50 [2, 11] was 210 nM and the GI50 ([2]; Table 3, read-out: GI50 (UKE1)) was 210 nM. The ΔTm at 4 µM ([3]; Table 1) was 9.2 °C and the “BRD4 DSF (ΔTm)” value [3] was 9.2 °C.

In the case of `Cc1cnc(Nc2ccc(C3CCN(C)CC3)c(F)c2)nc1Nc1ccc2c(c1)C(S(=O)(=O)C(C)(C)C)CC2` (stereo not shown) [SR5-156, N^4-(3-(tert-Butylsulfonyl)-2,3-dihydro-1H-inden-5-yl)-N^2-(3-fluoro-4-(1-methylpiperidin-4-yl)phenyl)-5-methylpyrimidine-2,4-diamine], the GI50 [1] is reported as 850 nM, the GI50 ([2]; Table 3, read-out: GI50 (UKE1)) is reported as 1440 nM and the “BRD4 DSF (ΔTm)” value [3] is reported as 8.7 °C.

`Cc1cnc(Nc2ccc(C3CCN(C)CC3)c(F)c2)nc1Nc1ccc(Cl)c(CS(=O)(=O)C(C)(C)C)c1` [SR3-169, N^4-(3-((tert-Butylsulfonyl)methyl)-4-chlorophenyl)-N^2-(3-fluoro-4-(1-methylpiperidin-4-yl)phenyl)-5-methylpyrimidine-2,4-diamine] showed an IC50 ([1]; Table 1) of 320 nM, a GI50 [1] of 320 nM and an IC50 ([5]; Table 3, read-out: JAK2 (IC50)) of 4.2 nM. It also gave a Mouse microsome [8] of 22%, an IC50 ([6]; Table 3, read-out: BRD4 (IC50)) of 700 nM and a GI50 [2, 11] of 400 nM. For the same compound, the GI50 ([2]; Table 3, read-out: GI50 (UKE1)) was 400 nM, the ΔTm at 4 µM ([3]; Table 1) was 9.8 °C and the “BRD4 DSF (ΔTm)” value [3] was 9.8 °C.
